pKi: −log10 of the molar value. Like-named read-outs stand apart in the source and are kept apart here.
Tests used:
JAK2 = JAK2 (Homo sapiens (Human), UniProt O60674); assay: Biochemical JAK and Tyk2 kinase assays (LanthaScreen): JAK2; conditions: 1 h pre-incubation, ATP at Km; pIC50 converted to pKi by Cheng-Prusoff
Method: (§1) Assay 1: Biochemical JAK and Tyk2 Kinase Assays
(§2) A panel of four LanthaScreen JAK biochemical assays (JAK1, 2, 3 and Tyk2) were carried in a common kinase reaction buffer (50 mM HEPES, pH 7.5, 0.01% Brij-35, 10 mM MgCl2, and 1 mM EGTA). Recombinant GST-tagged JAK enzymes and a GFP-tagged STAT1 peptide substrate were obtained from Life Technologies.
(§3) Serially or discretely diluted compounds were pre-incubated with each of the four JAK enzymes and the substrate in white 384-well microplates (Corning) at ambient temperature for 1 h. ATP was subsequently added to initiate the kinase reactions in 10 μL total volume, with 1% DMSO. […] Kinase reactions were allowed to proceed for 1 hour at ambient temperature before a 10 μL preparation of EDTA (10 mM final concentration) and Tb-anti-pSTAT1 (pTyr701) antibody (Life Technologies, 2 nM final concentration) in TR-FRET dilution buffer (Life Technologies) was added. The plates were allowed to incubate at ambient temperature for 1 h before being read on the EnVision reader (Perkin Elmer). Emission ratio signals (520 nm/495 nm) were recorded and utilized to calculate the percent inhibition values based on DMSO and background controls.
(§4) For dose-response analysis, percent inhibition data were plotted vs. compound concentrations, and IC50 values were determined from a 4-parameter robust fit model with the Prism software (GraphPad Software). Results were expressed as pIC50 (negative logarithm of IC50) and subsequently converted to pKi (negative logarithm of dissociation constant, Ki) using the Cheng-Prusoff equation.

Tyk2 = Tyk2 (Homo sapiens (Human), UniProt P29597); assay: Biochemical JAK and Tyk2 kinase assays (LanthaScreen): Tyk2; conditions: 1 h pre-incubation, ATP at Km; pIC50 converted to pKi by Cheng-Prusoff
Method: as §1, §2, §3, §4

JAK1 = JAK1 (Homo sapiens (Human), UniProt P23458); assay: Biochemical JAK and Tyk2 kinase assays (LanthaScreen): JAK1; conditions: 1 h pre-incubation, ATP at Km; pIC50 converted to pKi by Cheng-Prusoff
Method: as §1, §2, §3, §4

[1] = system: IL-2 stimulated pSTAT5 in Tall-1 T cells (JAK3); assay: Cellular JAK3 potency assay: inhibition of IL-2 stimulated pSTAT5 in Tall-1 T cells; type: cell-based; conditions: IL-2 300 ng/ml, pSTAT5 AlphaLisa, Tall-1 human T cell line; read-out: Tall-1 (pIC50) (converted)
Method: Assay 2: Cellular JAK3 Potency Assay: Inhibition of IL-2 Stimulated pSTAT5 in Tall-1 T Cells
The potency of test compounds for inhibition of interleukin-2 (IL-2) stimulated STATS phosphorylation was measured in the Tall-1 human T cell line (DSMZ) using AlphaLisa. Because IL-2 signals through JAK3, this assay provides a measure of JAK3 cellular potency.
Phosphorylated STATS was measured via the AlphaLISA SureFire Ultra pSTAT5 (Tyr694/699) kit (PerkinElmer).
Human T cells from the Tall-1 cell line were cultured in a 37° C., 5% CO2 humidified incubator in RPMI (Life Technologies) supplemented with 15% Heat Inactivated Fetal Bovine Serum (FBS, Life Technologies), 2 mM Glutamax (Life Technologies), 25 mM HEPES (Life Technologies) and 1× Pen/Strep (Life Technologies). Compounds were serially diluted in DMSO and dispensed acoustically to empty wells. Assay media (phenol red-free DMEM (Life Technologies) supplemented with 10% FBS (ATCC)) was dispensed (4 μL/well) and plates shaken at 900 rpm for 10 mins. Cells were seeded at 45,000 cells/well in assay media (4 μL/well), and incubated at 37° C., 5% CO2 for 1 hour, followed by the addition of IL-2 (R&D Systems; final concentration 300 ng/ml) in pre-warmed assay media ([…]) for 30 minutes. After cytokine stimulation, cells were lysed with 6 ul of 3× AlphaLisa Lysis Buffer (PerkinElmer) containing 1× PhosStop and Complete tablets (Roche). The lysate was shaken at 900 rpm for 10 minutes at room temperature (RT). Phosphorylated STATS was measured via the pSTAT5 AlphaLisa kit (PerkinElmer). Freshly prepared acceptor bead mixture was dispensed onto lysate (5 μL) under green filtered <100 lux light. Plates were shaken at 900 rpm for 2 mins, briefly spun down, and incubated for 2 hrs at RT in the dark. Donor beads were dispensed (5 μL) under green filtered <100 lux light. Plates were shaken at 900 rpm for 2 minutes, briefly spun down, and incubated overnight at RT in the dark. Luminescence was measured with excitation at 689 nm and emission at 570 nm using an EnVision plate reader (PerkinElmer) under green filtered <100 lux light.
To determine the inhibitory potency of test compounds in response to IL-2, the average emission intensity of beads bound to pSTAT5 was measured in a human T cell line. IC50 values were determined from analysis of the inhibition curves of signal intensity versus compound concentration. Data are expressed as pIC50 (negative decadic logarithm IC50) values (mean±standard deviation).

JAK3 = JAK3 (Homo sapiens (Human), UniProt P52333); assay: Biochemical JAK and Tyk2 kinase assays (LanthaScreen): JAK3; conditions: for Ki: read-out: JAK 3 (pKi) (converted); for JAK3 (pKi)-JAK1 (pKi): difference of pKi values, selectivity JAK3 over JAK1
Method: as §1, §2, §3, §4

[2] = 1 h pre-incubation, ATP at Km, pIC50 converted to pKi by Cheng-Prusoff

Sequence of Tyk2 (P29597 whole entry): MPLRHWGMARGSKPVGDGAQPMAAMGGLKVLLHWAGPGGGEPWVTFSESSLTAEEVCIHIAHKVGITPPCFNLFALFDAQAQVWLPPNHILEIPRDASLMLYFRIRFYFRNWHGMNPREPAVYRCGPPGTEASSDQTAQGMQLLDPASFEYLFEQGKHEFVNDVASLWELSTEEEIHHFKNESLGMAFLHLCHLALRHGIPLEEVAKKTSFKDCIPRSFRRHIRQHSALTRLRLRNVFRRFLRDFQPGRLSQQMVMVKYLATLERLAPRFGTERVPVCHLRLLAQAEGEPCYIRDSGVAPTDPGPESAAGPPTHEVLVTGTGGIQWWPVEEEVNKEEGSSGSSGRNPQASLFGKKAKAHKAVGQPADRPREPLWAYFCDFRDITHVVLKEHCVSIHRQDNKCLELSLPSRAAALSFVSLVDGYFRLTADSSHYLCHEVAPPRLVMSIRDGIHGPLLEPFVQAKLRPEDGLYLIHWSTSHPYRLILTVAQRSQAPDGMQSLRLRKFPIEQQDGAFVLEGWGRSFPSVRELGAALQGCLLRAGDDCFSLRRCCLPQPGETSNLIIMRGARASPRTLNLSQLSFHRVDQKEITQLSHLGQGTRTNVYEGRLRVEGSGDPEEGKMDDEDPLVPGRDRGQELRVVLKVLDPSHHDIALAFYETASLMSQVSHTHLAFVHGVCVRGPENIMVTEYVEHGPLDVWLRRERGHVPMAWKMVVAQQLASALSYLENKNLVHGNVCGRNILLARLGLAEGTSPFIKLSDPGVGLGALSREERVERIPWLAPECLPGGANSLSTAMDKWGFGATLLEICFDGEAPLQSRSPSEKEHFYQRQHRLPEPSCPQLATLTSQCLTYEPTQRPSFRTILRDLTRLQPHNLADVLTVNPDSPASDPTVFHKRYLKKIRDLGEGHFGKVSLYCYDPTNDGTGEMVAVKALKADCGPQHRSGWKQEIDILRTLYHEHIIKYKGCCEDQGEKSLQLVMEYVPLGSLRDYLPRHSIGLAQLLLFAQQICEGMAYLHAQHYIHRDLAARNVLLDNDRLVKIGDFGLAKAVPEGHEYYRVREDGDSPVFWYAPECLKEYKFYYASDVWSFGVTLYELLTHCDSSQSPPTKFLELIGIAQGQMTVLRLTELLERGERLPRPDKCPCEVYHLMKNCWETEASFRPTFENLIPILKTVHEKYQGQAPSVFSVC
Sequence of JAK2 (O60674 whole entry): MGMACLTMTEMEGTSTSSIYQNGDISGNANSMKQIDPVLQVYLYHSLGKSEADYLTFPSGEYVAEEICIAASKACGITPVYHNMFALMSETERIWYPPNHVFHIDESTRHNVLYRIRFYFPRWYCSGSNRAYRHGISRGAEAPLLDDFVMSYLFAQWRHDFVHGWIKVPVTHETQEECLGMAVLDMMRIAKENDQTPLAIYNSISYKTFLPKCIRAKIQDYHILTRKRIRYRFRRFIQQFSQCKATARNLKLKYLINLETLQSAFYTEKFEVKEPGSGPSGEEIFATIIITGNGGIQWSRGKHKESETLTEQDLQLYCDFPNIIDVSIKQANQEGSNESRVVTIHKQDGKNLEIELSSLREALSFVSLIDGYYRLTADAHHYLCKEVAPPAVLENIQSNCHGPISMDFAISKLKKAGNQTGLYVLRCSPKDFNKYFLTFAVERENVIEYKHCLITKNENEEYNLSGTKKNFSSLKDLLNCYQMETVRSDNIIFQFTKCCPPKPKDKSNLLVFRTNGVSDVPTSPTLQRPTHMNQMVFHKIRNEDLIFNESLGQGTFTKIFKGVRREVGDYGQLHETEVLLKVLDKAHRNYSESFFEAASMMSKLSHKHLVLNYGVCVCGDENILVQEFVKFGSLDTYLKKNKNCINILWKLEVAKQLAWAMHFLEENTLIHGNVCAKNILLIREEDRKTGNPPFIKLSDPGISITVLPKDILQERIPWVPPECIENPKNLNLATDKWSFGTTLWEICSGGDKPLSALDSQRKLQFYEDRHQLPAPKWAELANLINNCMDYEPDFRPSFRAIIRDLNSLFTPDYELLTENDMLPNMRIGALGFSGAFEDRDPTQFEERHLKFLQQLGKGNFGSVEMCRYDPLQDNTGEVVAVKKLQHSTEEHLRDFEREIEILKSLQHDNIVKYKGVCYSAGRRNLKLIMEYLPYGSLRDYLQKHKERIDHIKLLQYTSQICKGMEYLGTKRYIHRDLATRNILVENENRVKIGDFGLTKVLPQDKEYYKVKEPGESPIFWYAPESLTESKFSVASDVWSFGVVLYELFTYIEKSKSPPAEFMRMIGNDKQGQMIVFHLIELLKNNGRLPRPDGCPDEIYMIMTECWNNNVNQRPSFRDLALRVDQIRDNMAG
Sequence of JAK3 (P52333 whole entry): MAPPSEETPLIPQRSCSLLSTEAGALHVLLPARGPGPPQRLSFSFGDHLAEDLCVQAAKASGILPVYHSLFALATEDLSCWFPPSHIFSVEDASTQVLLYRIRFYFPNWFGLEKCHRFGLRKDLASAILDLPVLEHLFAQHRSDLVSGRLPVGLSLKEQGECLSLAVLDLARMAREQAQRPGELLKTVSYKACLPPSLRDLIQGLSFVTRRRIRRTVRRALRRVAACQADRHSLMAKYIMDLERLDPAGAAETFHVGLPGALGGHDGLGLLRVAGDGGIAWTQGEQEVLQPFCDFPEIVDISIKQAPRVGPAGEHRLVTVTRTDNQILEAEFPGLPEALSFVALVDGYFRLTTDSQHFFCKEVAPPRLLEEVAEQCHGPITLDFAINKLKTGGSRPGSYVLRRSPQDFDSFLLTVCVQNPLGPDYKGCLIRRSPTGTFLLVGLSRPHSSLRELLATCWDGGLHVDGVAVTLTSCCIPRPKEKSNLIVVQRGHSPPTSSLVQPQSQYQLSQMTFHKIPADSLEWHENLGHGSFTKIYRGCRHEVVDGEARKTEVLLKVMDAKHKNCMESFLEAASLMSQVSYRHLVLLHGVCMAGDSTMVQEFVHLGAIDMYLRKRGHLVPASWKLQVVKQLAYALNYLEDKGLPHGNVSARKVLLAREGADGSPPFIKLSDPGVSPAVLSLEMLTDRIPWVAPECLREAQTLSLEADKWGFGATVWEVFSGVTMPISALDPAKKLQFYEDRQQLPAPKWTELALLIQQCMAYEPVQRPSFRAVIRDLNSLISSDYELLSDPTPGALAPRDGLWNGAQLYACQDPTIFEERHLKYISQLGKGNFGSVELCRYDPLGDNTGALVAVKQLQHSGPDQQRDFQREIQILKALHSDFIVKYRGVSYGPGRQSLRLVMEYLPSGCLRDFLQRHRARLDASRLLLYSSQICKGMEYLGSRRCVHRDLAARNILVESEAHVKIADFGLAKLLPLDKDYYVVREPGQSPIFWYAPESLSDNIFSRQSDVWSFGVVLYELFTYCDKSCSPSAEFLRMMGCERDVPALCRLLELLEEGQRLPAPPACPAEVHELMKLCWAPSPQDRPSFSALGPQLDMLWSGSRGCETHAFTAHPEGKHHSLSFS
Sequence of JAK1 (P23458 whole entry): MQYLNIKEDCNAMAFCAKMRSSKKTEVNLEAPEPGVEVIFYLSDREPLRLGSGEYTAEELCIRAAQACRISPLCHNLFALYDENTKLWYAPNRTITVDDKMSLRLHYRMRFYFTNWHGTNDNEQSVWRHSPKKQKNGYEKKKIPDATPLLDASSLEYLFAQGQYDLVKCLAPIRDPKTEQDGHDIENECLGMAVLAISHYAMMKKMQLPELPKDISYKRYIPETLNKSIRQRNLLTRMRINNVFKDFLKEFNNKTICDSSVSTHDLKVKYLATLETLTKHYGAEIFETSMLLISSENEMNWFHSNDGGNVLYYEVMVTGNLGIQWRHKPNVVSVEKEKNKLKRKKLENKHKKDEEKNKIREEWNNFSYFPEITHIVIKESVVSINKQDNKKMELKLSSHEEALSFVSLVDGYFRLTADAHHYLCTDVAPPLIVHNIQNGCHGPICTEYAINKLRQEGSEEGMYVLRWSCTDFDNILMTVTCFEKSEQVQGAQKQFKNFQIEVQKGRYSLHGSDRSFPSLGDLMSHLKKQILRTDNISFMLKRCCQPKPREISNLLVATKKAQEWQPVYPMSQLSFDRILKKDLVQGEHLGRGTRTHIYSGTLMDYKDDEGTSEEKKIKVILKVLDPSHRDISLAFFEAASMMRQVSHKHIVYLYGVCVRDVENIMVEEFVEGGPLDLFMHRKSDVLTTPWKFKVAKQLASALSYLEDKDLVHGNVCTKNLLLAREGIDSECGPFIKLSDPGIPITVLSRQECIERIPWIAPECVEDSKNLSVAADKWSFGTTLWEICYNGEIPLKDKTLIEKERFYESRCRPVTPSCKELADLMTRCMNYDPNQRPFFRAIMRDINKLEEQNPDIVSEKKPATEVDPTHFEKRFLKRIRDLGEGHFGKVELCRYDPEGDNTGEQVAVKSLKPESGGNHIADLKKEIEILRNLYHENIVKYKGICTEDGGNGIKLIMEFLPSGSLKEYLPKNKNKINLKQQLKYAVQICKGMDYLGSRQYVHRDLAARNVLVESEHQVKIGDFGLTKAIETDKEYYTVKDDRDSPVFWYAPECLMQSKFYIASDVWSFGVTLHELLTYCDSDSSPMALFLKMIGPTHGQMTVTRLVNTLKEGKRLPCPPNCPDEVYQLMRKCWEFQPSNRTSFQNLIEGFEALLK

C=CC(=O)N1CC[C@H](Oc2cc(-c3ccc(O)cc3)cn3cncc23)C1 [Example 1, (S)-1-(3-((6-(4-hydroxyphenyl)imidazo[1,5-a]pyridin-8-yl)oxy)pyrrolidin-1-yl)prop-2-en-1-one]
JAK 2 (pKi) (JAK2): E (E represents a pKi value of 7 or below (Ki of 100 nM or above))
Tyk 2 (pKi) (Tyk2): E (E represents a pKi value of 7 or below (Ki of 100 nM or above))
JAK 1 (pKi) (JAK1): E (E represents a pKi value of 7 or below (Ki of 100 nM or above))
IC50 [1]: 200 to 1000 nM
Ki (JAK3; [2]): 0.1 to 1 nM
JAK3 (pKi)-JAK1 (pKi) (JAK3): A (A represents a value of 3 or above)

C=CC(=O)N1CC2(CCC2Oc2cc(-c3ccc(O)cc3)cn3cncc23)C1 (centres unmarked) [Example 3, 1-(5-((6-(4-hydroxyphenyl)imidazo[1,5-a]pyridin-8-yl)oxy)-2-azaspiro[3.3]heptan-2-yl)prop-2-en-1-one]
JAK 2 (pKi) (JAK2): E (E represents a pKi value of 7 or below (Ki of 100 nM or above))
Tyk 2 (pKi) (Tyk2): E (E represents a pKi value of 7 or below (Ki of 100 nM or above))
JAK 1 (pKi) (JAK1): E (E represents a pKi value of 7 or below (Ki of 100 nM or above))
IC50 [1]: 31.6 to 200 nM
Ki (JAK3; [2]): 0.1 to 1 nM
JAK3 (pKi)-JAK1 (pKi) (JAK3): A (A represents a value of 3 or above)

C=CC(=O)N1CCC(Nc2cc(-c3ccc(O)cc3)cn3cncc23)CC1 [Example 4, 1-(4-((6-(4-hydroxyphenyl)imidazo[1,5-a]pyridin-8-yl)amino)piperidin-1-yl)prop-2-en-1-one]
JAK 2 (pKi) (JAK2): E (E represents a pKi value of 7 or below (Ki of 100 nM or above))
Tyk 2 (pKi) (Tyk2): E (E represents a pKi value of 7 or below (Ki of 100 nM or above))
JAK 1 (pKi) (JAK1): E (E represents a pKi value of 7 or below (Ki of 100 nM or above))
Ki (JAK3; [2]): 1 to 10 nM
JAK3 (pKi)-JAK1 (pKi) (JAK3): B (B represents a value of 2.3 to 3)

CN(C)C/C=C/C(=O)N1CC(COc2cc(-c3ccc(O)c(Cl)c3)cn3cncc23)C1 [Example 23]
JAK 2 (pKi) (JAK2): E (E represents a pKi value of 7 or below (Ki of 100 nM or above))
Tyk 2 (pKi) (Tyk2): E (E represents a pKi value of 7 or below (Ki of 100 nM or above))
JAK 1 (pKi) (JAK1): E (E represents a pKi value of 7 or below (Ki of 100 nM or above))
IC50 [1]: 200 to 1000 nM
Ki (JAK3; [2]): 0.1 to 1 nM
JAK3 (pKi)-JAK1 (pKi) (JAK3): A (A represents a value of 3 or above)

C=CC(=O)N1CC[C@H](COc2cc(-c3ccc(O)cc3)cn3cncc23)C1 [Example 26]
JAK 2 (pKi) (JAK2): E (E represents a pKi value of 7 or below (Ki of 100 nM or above))
Tyk 2 (pKi) (Tyk2): E (E represents a pKi value of 7 or below (Ki of 100 nM or above))
JAK 1 (pKi) (JAK1): E (E represents a pKi value of 7 or below (Ki of 100 nM or above))
IC50 [1]: 200 to 1000 nM
Ki (JAK3; [2]): 0.1 to 1 nM
JAK3 (pKi)-JAK1 (pKi) (JAK3): A (A represents a value of 3 or above)

C=CC(=O)N1CCC[C@H](Oc2cc(-c3ccc(O)cc3)cn3cncc23)C1 [Example 27]
JAK 2 (pKi) (JAK2): E (E represents a pKi value of 7 or below (Ki of 100 nM or above))
Tyk 2 (pKi) (Tyk2): E (E represents a pKi value of 7 or below (Ki of 100 nM or above))
JAK 1 (pKi) (JAK1): E (E represents a pKi value of 7 or below (Ki of 100 nM or above))
IC50 [1]: 200 to 1000 nM
Ki (JAK3; [2]): 0.1 to 1 nM
JAK3 (pKi)-JAK1 (pKi) (JAK3): A (A represents a value of 3 or above)

C=CC(=O)N1CC2(CC(Oc3cc(-c4ccc(O)cc4)cn4cncc34)C2)C1 [Example 37]
JAK 2 (pKi) (JAK2): E (E represents a pKi value of 7 or below (Ki of 100 nM or above))
Tyk 2 (pKi) (Tyk2): E (E represents a pKi value of 7 or below (Ki of 100 nM or above))
JAK 1 (pKi) (JAK1): E (E represents a pKi value of 7 or below (Ki of 100 nM or above))
IC50 [1]: 200 to 1000 nM
Ki (JAK3; [2]): 0.1 to 1 nM
JAK3 (pKi)-JAK1 (pKi) (JAK3): A (A represents a value of 3 or above)

C=CC(=O)N1CC[C@@H](Oc2cc(-c3ccc(O)cc3)cn3cncc23)C[C@@H]1C [Example 39]
JAK 2 (pKi) (JAK2): E (E represents a pKi value of 7 or below (Ki of 100 nM or above))
Tyk 2 (pKi) (Tyk2): E (E represents a pKi value of 7 or below (Ki of 100 nM or above))
JAK 1 (pKi) (JAK1): E (E represents a pKi value of 7 or below (Ki of 100 nM or above))
IC50 [1]: 31.6 to 200 nM
JAK 3 (pKi) (JAK3; [2]): A (A represents a pKi value≥10 (Ki≤0.1 nM))
JAK3 (pKi)-JAK1 (pKi) (JAK3): A (A represents a value of 3 or above)

C=CC(=O)N1CC[C@@H](Oc2cc(-c3ccc(O)cc3)cn3cncc23)[C@@H](C)C1 [Example 41]
JAK 2 (pKi) (JAK2): E (E represents a pKi value of 7 or below (Ki of 100 nM or above))
Tyk 2 (pKi) (Tyk2): E (E represents a pKi value of 7 or below (Ki of 100 nM or above))
JAK 1 (pKi) (JAK1): E (E represents a pKi value of 7 or below (Ki of 100 nM or above))
IC50 [1]: 31.6 to 200 nM
JAK 3 (pKi) (JAK3; [2]): A (A represents a pKi value≥10 (Ki≤0.1 nM))
JAK3 (pKi)-JAK1 (pKi) (JAK3): A (A represents a value of 3 or above)

C=CC(=O)N1CC(COc2cc(-c3ccc(O)cc3C)cn3cncc23)C1 [Example 44]
JAK 2 (pKi) (JAK2): E (E represents a pKi value of 7 or below (Ki of 100 nM or above))
Tyk 2 (pKi) (Tyk2): E (E represents a pKi value of 7 or below (Ki of 100 nM or above))
JAK 1 (pKi) (JAK1): E (E represents a pKi value of 7 or below (Ki of 100 nM or above))
IC50 [1]: 31.6 to 200 nM
Ki (JAK3; [2]): 0.1 to 1 nM
JAK3 (pKi)-JAK1 (pKi) (JAK3): A (A represents a value of 3 or above)

C=CC(=O)N1CCC(Oc2cc(-c3cc(F)c(O)cc3CC)cn3cncc23)CC1 [Example 47]
pKi (JAK1): 7.00 to 8.00
IC50 [1]: ≤ 31.6 nM
JAK 3 (pKi) (JAK3; [2]): A (A represents a pKi value≥10 (Ki≤0.1 nM))
JAK3 (pKi)-JAK1 (pKi) (JAK3): B (B represents a value of 2.3 to 3)

C=CC(=O)N1[C@@H]2CC[C@H]1C[C@H](Oc1cc(-c3cc(F)c(O)cc3CC)cn3cncc13)C2 [Example 48]
pKi (JAK1): 7.00 to 8.00
IC50 [1]: ≤ 31.6 nM
JAK 3 (pKi) (JAK3; [2]): A (A represents a pKi value≥10 (Ki≤0.1 nM))
JAK3 (pKi)-JAK1 (pKi) (JAK3): A (A represents a value of 3 or above)

C=CC(=O)N1CCC(Oc2cc(-c3cc(F)c(O)cc3CC)cn3cncc23)C(F)(F)C1 (centres unmarked) [Example 49]
pKi (JAK1): 7.00 to 8.00
IC50 [1]: ≤ 31.6 nM
JAK3 (pKi)-JAK1 (pKi) (JAK3): C (C represents a value of 1.8 to 2.3)
Ki (JAK3): 0.1 nM
